# Results taken from US7652018B2, “Imidazolidin-2-one derivatives useful as PR modulators” (Wyeth LLC, priority 2006, dated 2010).
# Target: T1, progesterone receptor (Homo sapiens, UniProt P06401)
# T1 construct: determining a compound's effect on alkaline phosphatase activity in T47D cells; endogenous in cells; host or cells: T47D cells
# T1 sequence (P06401 1-933): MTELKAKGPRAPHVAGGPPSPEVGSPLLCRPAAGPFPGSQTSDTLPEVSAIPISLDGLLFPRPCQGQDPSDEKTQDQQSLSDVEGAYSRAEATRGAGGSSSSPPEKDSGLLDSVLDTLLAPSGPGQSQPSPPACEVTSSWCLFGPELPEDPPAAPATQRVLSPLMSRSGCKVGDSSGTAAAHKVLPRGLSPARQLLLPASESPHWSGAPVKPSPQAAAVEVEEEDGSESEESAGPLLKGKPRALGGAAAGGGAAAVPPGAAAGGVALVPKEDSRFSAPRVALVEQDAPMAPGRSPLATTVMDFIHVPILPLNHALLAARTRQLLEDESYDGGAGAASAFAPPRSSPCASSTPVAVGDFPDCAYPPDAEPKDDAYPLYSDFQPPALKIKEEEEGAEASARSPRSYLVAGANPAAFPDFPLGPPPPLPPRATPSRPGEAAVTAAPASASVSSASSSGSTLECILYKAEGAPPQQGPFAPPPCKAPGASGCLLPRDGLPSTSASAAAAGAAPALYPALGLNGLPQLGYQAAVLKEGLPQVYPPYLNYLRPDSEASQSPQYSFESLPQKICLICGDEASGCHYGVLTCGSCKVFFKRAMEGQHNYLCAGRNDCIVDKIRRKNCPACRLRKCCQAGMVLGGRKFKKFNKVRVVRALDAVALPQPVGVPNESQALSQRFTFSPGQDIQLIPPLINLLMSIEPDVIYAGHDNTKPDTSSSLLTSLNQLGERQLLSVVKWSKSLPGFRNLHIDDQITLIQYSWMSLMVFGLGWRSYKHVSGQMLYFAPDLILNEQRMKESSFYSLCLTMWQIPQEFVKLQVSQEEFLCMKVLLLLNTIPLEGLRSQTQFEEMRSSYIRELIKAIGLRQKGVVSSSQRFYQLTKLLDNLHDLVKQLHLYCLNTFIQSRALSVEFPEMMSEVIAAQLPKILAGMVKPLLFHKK
# Assay: Alkaline phosphatase activity in T47D cells (progestin antagonist mode)
# Assay type: cell-based
# Conditions: in the presence of 1 nM progesterone, 24 h, read-out: T47D Alkaline Phosphatase Activity IC50 (nM) or % inhibition
# Description: (1) Effects of Progestins and Antiprogestins on Alkaline Phosphatase Activity in T47D Cells
# PURPOSE: To identify progestins or antiprogestins by determining a compound's effect on alkaline phosphatase activity in T47D cells.
# Culture medium: • DMEM:F12 (1:1) (GIBCO, BRL) supplemented with 5% (v/v) charcoal stripped fetal bovine serum (not heat-inactivated), 100 U/mL penicillin, 100 μg/mL streptomycin, and 2 mM the GlutaMax™ reagent (GIBCO, BRL).
# Alkaline phosphatase assay buffer: • I. 0.1M Tris-HCl, pH 9.8, containing 0.2% the Triton® X-100 reagent • II. 0.1M Tris-HCl, pH 9.8, containing 4 mM p-nitrophenyl phosphate (Sigma). B. Cell Culture and Treatment:
# Frozen T47D cells were thawed in a 37° C. water bath and diluted to 280,000 cells/mL in culture medium. To each well in a 96-well plate (Falcon, Becton Dickinson Labware), 180 μL of diluted cell suspension was added.
# Twenty μL of reference or test compounds diluted in the culture medium was then added to each well. When testing for progestin antagonist activity, reference antiprogestins or test compounds were added in the presence of 1 nM progesterone. The cells were incubated at 37° C. in a 5% CO2/humidified atmosphere for 24 h.
# NOTE: For high throughput screening, one concentration of each compound was tested at 0.3 μg/mL. Based on an average molecular weight of 300 g/mol for the compounds in the library, the concentration was approximately 1 μM. Subsequently, active compounds were tested in dose response assays to determine EC50 and IC50. C. Alkaline Phosphatase Enzyme Assay:
# At the end of treatment, the medium was removed from the plate. Fifty μL of assay buffer I was added to each well. The plates were shaken in a titer plate shaker for 15 min. Then 150 μL of assay buffer II was added to each well. Optical density measurements were taken at 5 min intervals for 30 min at a test wavelength of 405 nm.
# For reference and test compounds, a dose response curve was generated for dose (X-axis) vs. the rate of enzyme reaction (slope) (Y-axis). Square root-transformed data was used for analysis of variance and nonlinear dose response curve fitting for both agonist and antagonist modes. Huber weighting was used to down-weight the effects of outliers. EC50 or IC50 values were calculated from the retransformed values. JMP software (SAS Institute, Inc.) was used for both one-way analysis of variance and non-linear dose response analysis in both single dose and dose response studies.
# Progesterone and trimegestone were reference progestins and RU486 was the reference antiprogestin. All reference compounds were run in full dose response curves and the EC50 and IC50 values were calculated.
row,SMILES,IC50 [nM]
1,"CN1CC(C)(C)N(c2nc(-c3ccc(C#N)cc3)cs2)C1=O [Example 8, 4-[2-(3,5,5-Trimethyl-2-oxoimidazolidin-1-yl)-1,3-thiazol-4-yl]benzonitrile]",35.4
2,"CC1(C)CN(Cc2ccccc2)C(=O)N1c1nc(-c2ccc(C#N)cc2)cs1 [Example 9, 4-[2-(3-Benzyl-5,5-dimethyl-2-oxoimidazolidin-1-yl)-1,3-thiazol-4-yl]benzonitrile]",77.9

# Results, then the molecule that gave them:
row,IC50 [nM],SMILES
1,733,"CN1CCN(c2nc(-c3ccc(Br)cc3)cs2)C1=O [Example 5, 1-[4-(4-Bromophenyl)-1,3-thiazol-2-yl]-3-methylimidazolidin-2-one]"
2,1070,"O=C1NCCN1c1nc(-c2ccc(Br)cc2)cs1 [Example 4, 1-[4-(4-Bromophenyl)-1,3-thiazol-2-yl]imidazolidin-2-one]"

# System: not given
# Assay: not given
# Conditions: not given
row,melting point [°C],SMILES
1,145 to 147,"CCC1(CC)COC(=O)N1c1nc(-c2ccc(C#N)cc2)cs1 [Example 2, 4-[2-(4,4-Diethyl-2-oxo-1,3-oxazolidin-3-yl)-1,3-thiazol-4-yl]benzonitrile]"
2,197 to 199,"C[C@@H]1COC(=O)N1c1nc(-c2ccc(Br)cc2)cs1 [Example 1, (4R)-3-[4-(4-Bromophenyl)-1,3-thiazol-2-yl]-4-methyl-1,3-oxazolidin-2-one]"
3,181 to 183,"CC1(C)COC(=O)N1c1nc(-c2cccc(C#N)c2)cs1 [Example 3, 3-[2-(4,4-dimethyl-2-oxo-1,3-oxazolidin-3-yl)-1,3-thiazol-4-yl]benzonitrile]"
4,230 to 233,"O=C1NCCN1c1nc(-c2ccc(Br)cc2)cs1 [Example 4, 1-[4-(4-Bromophenyl)-1,3-thiazol-2-yl]imidazolidin-2-one]"
